Results from patent US10092541B2, “Methods for the treatment of diseases ameliorated by PDE4 inhibition using dosage titration of apremilast” (CELGENE CORPORATION, priority 2014, dated 2018).
Marks after values point to notes of the source that are not given here.

Tested on: patients with moderate to severe plaque psoriasis
Assay: Esteem 1: randomized, double-blind, placebo controlled, multicenter clinical study in psoriasis
Format: in vivo, human
Conditions: for PASI-75, %: primary endpoint
Experimental: In the study 844 patients were enrolled; patients ranged in age from 18 to 83 years, with an overall median age of 46 years. The mean baseline body surface area (BSA) involvement was 25.19% (median 21.0%), the mean baseline PASI score was 19.07 (median 16.80), and the proportion of patients with sPGA score of 3 (moderate) and 4 (severe) at Baseline were 70.0% and 29.8%, respectively. Patients were randomized to Apremilast, in an amount of 30 mg twice per day (after the initial dose titration schedule) or placebo for the first 16 weeks, and from Weeks 16 to 32, all patients received Apremilast in an amount of 30 mg twice per day.
Target Dose: 30 mg (po) BID
Day 1: 10 mg in the morning
Day 2: 10 mg morning; 10 mg after noon
Day 3: 10 mg morning; 20 mg after noon
Day 4: 20 mg morning; 20 mg after noon
Day 5: 20 mg morning; 30 mg after noon
During the Randomized Treatment Withdrawal Phase (Weeks 32-52), patients originally randomized to Apremilast who achieved at least a 75% reduction in PASI score (PASI-75) at Week 32 were re-randomized to either placebo or Apremilast 30 mg BID. Patients who were re-randomized to placebo and who lost PASI-75 response at Week 32 compared to Baseline, were retreated with Apremilast 30 mg BID.

[1] = 77 PASI 75 responders re-randomized to apremilast 30 mg BID at Week 32
[2] = Week 16, 30 mg twice daily, n = 562, LOCF
[3] = Week 16, 30 mg twice daily, n = 562, LOCF, listed as Apremilast
[4] = Week 16, 30 mg twice daily, patients with baseline DLQI >5, n = 459
[5] = Week 16, 30 mg twice daily, patients with nail psoriasis at baseline, n = 363

SMILES: CCOc1cc([C@@H](CS(C)(=O)=O)N2C(=O)c3cccc(NC(C)=O)c3C2=O)ccc1OC [apremilast, (+)-2-[1-(3-ethoxy-4-methoxyphenyl)-2-methylsulfonylethyl]-4-acetylaminoisoindoline-1,3-dione]
- Non-overlapping confidence intervals vs placebo in mean percentage improvement in PASI from baseline, first detected (30 mg twice daily): as early as Week 2
- Responses to apremilast from Weeks 16 to 32 (30 mg twice daily): generally maintained
- regained PASI 75 response after re-treatment, % (64 patients re-randomized to placebo who re-initiated apremilast before Week 52 after losing PASI 75): 70.3%
- PASI-75 response at Week 52, % [1]: 61.0%
- at least 70% improvement in PASI score from baseline at Week 52, % [1]: 75.3%
- Mean change in DLQI score [2]: −6.6
- PASI-50, % [2]: (58.7%)*
- PASI-90, % [2]: (9.8%)*
- Percentage change in PASI score, mean (SD) [2]: −52.1%
- Percentage change in PASI score, median (range) [2]: −59.0%
- sPGA response (score 0 or 1 with at least two-point reduction), % [2]: 21.7%
- sPGA response (score 0 or 1 with at least two-point reduction), % [3]: (21.7%)*
- PASI-75, % [2]: 33.1%
- PASI-75, % [3]: (33.1%)*
- DLQI + PASI-50 response, % [4]: (48.1%)*
- DLQI response (decrease of at least five points), % [4]: (70.2%)*
- NAPSI-50, % [5]: (33.3%)*
- Percentage change in NAPSI score, mean (SD) [5]: −22.5%
- ScPGA score 0-1, % (Week 16, 30 mg twice daily, patients with scalp psoriasis (ScPGA at least 3) at baseline, n = 374): (46.5%)*
- Severity of the majority of adverse events (did not lead to discontinuation): mild to moderate
- 5 most common adverse events (AEs) (human, in vivo): diarrhea, nausea, upper respiratory tract infection, tension headache, and headache
- Discontinuation due to upper respiratory tract infection (human, in vivo): No patient discontinued
- Discontinuations due to AEs: diarrhea (human, in vivo): 0.8%
- Discontinuations due to AEs: headache (human, in vivo): 0.4%
- Discontinuations due to AEs: nausea (human, in vivo): 1.2%
- Discontinuations due to AEs: tension headache (human, in vivo): 0.2%
- Mean percentage change from baseline in PASI score at Week 52 (patients re-randomized to apremilast 30 mg BID at Week 32): 80.5%
- Median time to first loss of PASI 75 after re-randomization (patients re-randomized to apremilast at Week 32): 17.7 weeks
- signs and symptoms of psoriasis (study conclusion): significantly improved
